Source: ChEMBL document CHEMBL1147472, “Design, synthesis, and evaluation of a new class of noncyclic 1,3-dicarbonyl compounds as PPARalpha selective activators” (Bioorg Med Chem Lett, 2004)

Key:
[1] = biological target: T1, Peroxisome proliferator-activated receptor gamma (Homo sapiens, UniProt P37231)
T1 sequence (P37231 whole entry): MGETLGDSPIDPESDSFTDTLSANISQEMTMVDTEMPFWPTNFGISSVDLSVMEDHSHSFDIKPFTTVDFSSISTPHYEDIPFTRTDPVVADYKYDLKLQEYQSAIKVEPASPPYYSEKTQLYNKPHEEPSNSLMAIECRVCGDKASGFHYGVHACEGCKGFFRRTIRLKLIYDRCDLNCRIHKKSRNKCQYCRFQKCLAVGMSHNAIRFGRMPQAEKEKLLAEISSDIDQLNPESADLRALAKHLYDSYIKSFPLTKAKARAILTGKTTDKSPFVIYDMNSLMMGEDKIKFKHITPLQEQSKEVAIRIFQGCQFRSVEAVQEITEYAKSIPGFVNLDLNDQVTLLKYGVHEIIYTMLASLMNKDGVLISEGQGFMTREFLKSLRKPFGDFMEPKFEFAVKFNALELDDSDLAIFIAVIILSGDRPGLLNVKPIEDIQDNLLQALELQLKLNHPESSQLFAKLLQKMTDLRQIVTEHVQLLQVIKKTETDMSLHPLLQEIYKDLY

[2] = biological target: T2, Peroxisome proliferator-activated receptor alpha (Homo sapiens, UniProt Q07869); assay: In vitro transcription activation on human peroxisome proliferator activated receptor-alpha (PPAR alpha); Inactive
T2 sequence (Q07869 whole entry): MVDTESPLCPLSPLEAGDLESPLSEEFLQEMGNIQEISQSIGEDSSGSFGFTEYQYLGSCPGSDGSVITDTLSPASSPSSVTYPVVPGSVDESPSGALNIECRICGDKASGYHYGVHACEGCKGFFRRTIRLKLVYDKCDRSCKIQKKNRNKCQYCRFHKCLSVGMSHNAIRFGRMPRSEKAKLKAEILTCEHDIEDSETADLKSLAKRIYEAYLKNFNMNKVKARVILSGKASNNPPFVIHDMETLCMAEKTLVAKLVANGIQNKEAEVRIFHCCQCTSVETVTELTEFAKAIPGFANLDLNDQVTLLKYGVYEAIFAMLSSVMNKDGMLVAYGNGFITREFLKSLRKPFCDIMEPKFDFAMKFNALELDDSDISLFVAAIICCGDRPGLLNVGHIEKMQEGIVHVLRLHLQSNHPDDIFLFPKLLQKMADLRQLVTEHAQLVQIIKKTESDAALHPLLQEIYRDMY

[3] = biological target: T3, Peroxisome proliferator-activated receptor delta (Homo sapiens, UniProt Q03181); assay: In vitro transcriptional activation by human peroxisome proliferator activated receptor-delta (PPAR delta; Inactive
T3 sequence (Q03181 whole entry): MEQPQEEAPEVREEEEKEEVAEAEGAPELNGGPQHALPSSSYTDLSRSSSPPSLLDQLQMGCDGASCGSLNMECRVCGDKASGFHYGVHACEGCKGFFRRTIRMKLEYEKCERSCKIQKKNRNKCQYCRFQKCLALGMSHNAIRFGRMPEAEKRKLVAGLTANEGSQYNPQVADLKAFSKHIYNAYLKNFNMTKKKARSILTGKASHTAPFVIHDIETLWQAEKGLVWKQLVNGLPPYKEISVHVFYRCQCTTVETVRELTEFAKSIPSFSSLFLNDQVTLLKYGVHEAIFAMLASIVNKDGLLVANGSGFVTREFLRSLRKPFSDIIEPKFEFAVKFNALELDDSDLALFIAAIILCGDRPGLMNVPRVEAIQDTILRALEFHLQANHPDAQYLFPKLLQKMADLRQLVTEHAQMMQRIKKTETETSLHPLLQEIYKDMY

[4] = biological target: T4, Peroxisome proliferator-activated receptor alpha (Homo sapiens) (UniProt Q07869); assay: (§1) In vitro transcription activation on human peroxisome proliferator activated receptor-alpha (PPAR alpha)
T4 sequence (whole entry): T2 sequence (Q07869 whole entry)

[5] = biological target: T3, Peroxisome proliferator-activated receptor delta; assay: In vitro transcription activation on human peroxisome proliferator activated receptor-delta (PPAR delta); Inactive
[6] = biological target: T1, Peroxisome proliferator-activated receptor gamma; assay: In vitro transcription activation on human peroxisome proliferator activated receptor-gamma (PPAR gamma)
[7] = biological target: T3, Peroxisome proliferator-activated receptor delta; assay: In vitro transcription activation on human peroxisome proliferator activated receptor-delta (PPAR delta)
[8] = biological target: T2, Peroxisome proliferator-activated receptor alpha; assay: as §1
Mus musculus [9] = assay: In vivo effect on blood glucose level in mice at a dose of 30 mg/kg by oral administration after two week; type: functional
Mus musculus [10] = assay: In vivo effect on blood glucose level in mice at a dose of 10 mg/kg by oral administration after two week; type: functional
Mus musculus [11] = assay: In vivo effect on blood glucose level in mice at a dose of 20 mg/kg by oral administration after two week; type: functional
Mus musculus [12] = assay: In vivo effect on blood glucose level in mice at the dose of 5 mg/kg by oral administration after two week; type: functional

EC50 [8] | SMILES | EC50 [2] | Max response [4] | EC50 [5] | EC50 [6] | EC50 [7] | also measured
 | O=C(O)C(Cc1ccc(OCCOc2ccc3ccccc3c2)cc1)C(=O)O | Not Active |  |  |  |  | EC50 [1]: Not Active; EC50 [3]: Not Active
 | Cc1cccc(Nc2cc(Cl)nc(SCC(=O)O)n2)c1C [PIRINIXIC ACID] |  | 100% |  |  |  | EC50 [1]: Not Active
 | CC1(C)CCC(C)(C)c2cc(OCCOc3ccc(CC(C(=O)O)C(=O)O)cc3)ccc21 | Not Active |  | Not Active | 2050 nM |  | 
 | COC(=O)C(Cc1ccc(OCCOc2ccc3c(c2)C(C)(C)CCC3(C)C)cc1)C(=O)OC | Not Active |  | Not Active | 150 nM |  | 
 | O=C(O)C(Cc1ccc(OCCOc2ccc3c(c2)NCCC3)cc1)C(=O)O | Not Active |  | Not Active |  |  | EC50 [1]: Not Active
 | COC(=O)C(Cc1ccc(OCCOc2ccc3c(c2)CCCC3)cc1)C(N)=O (configuration not stated) | Not Active |  | Not Active | 3430 nM |  | 
 | COC(=O)C(Cc1ccc(OCCOc2ccc3c(c2)C(C)(C)CCC3(C)C)cc1)C(N)=O (configuration not stated) | Not Active |  | Not Active | 830 nM |  | 
 | COC(=O)C(Cc1ccc(OCCOc2ccc3c(c2)C(C)(C)CCC3(C)C)cc1)C(=O)O (configuration not stated) | Not Active |  | Not Active | 90 nM |  | 
140 nM | NC(=O)C(Cc1ccc(OCCOc2ccc3c(c2)NCCC3)cc1)C(=O)O (configuration not stated) |  | 210% |  | 2880 nM | 3.62 µM | 
44 nM | COC(=O)C(Cc1ccc(OCCOc2ccc3ccccc3c2)cc1)C(=O)O (configuration not stated) |  | 264% |  | 1120 nM | 1.05 µM | 
 | CCCCCCCCCCCCCCC(Br)C(=O)O (configuration not stated) |  |  |  |  | 3.72 µM | 
 | O=C(O)C(Cc1ccc(OCCOc2ccc3c(c2)CCCC3)cc1)C(=O)O | Not Active |  |  | 2110 nM | 4.68 µM | 
170 nM | COC(=O)C(Cc1ccc(OCCOc2ccc3c(c2)NCCC3)cc1)C(=O)OC |  | 215% |  | 3160 nM | 3.16 µM | 
 | Cc1oc(-c2ccccc2)nc1CCOc1ccc(CC2C(=O)NOC2=O)cc1 (configuration not stated) [REGLITAZAR] |  |  | Not Active |  |  | 
 | CN(CCOc1ccc(CC2SC(=O)NC2=O)cc1)c1ccccn1 (configuration not stated) [ROSIGLITAZONE] |  |  |  |  |  | Reduction (Mus musculus [12]): 62.96%
90 nM | COC(=O)C(Cc1ccc(OCCOc2ccc3c(c2)NCCC3)cc1)C(=O)O (configuration not stated) |  | 207% |  | 3800 nM | 3.09 µM | 
 | COC(=O)C(Cc1ccc(OCCOc2ccc3c(c2)CCCC3)cc1)C(=O)O (configuration not stated) | Not Active |  |  | 690 nM | 2.45 µM | 
 | CC1(C)CCC(C)(C)c2cc(OCCOc3ccc(CC(C(N)=O)C(=O)O)cc3)ccc21 (configuration not stated) | Not Active |  | Not Active |  |  | EC50 [1]: Not Active

SMILES | EC50 [8] | EC50 [2] | Max response [4] | EC50 [5] | EC50 [6] | EC50 [7] | also measured
COC(=O)C(Cc1ccc(OCCOc2ccc3c(c2)CCCC3)cc1)C(=O)OC | 30 nM |  | 210% |  | 1500 nM | 3.31 µM | Reduction (Mus musculus [9]): 38.15%
COC(=O)C(Cc1ccc(OCCOc2ccc3ccccc3c2)cc1)C(=O)OC | 70 nM |  | 264% |  | 530 nM | 1.27 µM | Reduction (Mus musculus [9]): 46.76%; Reduction (Mus musculus [10]): 35.08%
NC(=O)C(Cc1ccc(OCCOc2ccc3ccccc3c2)cc1)C(=O)O (configuration not stated) | 250 nM |  | 213% |  | 3020 nM | 2.63 µM | Reduction (Mus musculus [11]): 42.22%
